Our source for the IC50 values is ChEMBL document CHEMBL1909046, “DrugMatrix in vitro pharmacology data”.

Beta-2 adrenergic receptor, sequence (P07550 whole entry): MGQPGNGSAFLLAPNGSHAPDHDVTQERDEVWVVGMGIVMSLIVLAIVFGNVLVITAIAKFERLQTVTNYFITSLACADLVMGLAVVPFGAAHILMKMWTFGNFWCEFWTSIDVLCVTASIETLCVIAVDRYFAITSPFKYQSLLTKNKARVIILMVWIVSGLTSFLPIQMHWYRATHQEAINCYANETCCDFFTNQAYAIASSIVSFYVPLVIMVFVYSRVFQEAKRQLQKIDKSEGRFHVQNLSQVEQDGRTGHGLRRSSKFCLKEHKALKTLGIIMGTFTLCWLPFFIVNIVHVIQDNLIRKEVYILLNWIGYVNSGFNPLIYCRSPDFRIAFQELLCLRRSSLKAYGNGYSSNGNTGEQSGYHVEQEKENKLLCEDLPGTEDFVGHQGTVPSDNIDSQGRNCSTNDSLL
Beta-3 adrenergic receptor, sequence (P13945 whole entry): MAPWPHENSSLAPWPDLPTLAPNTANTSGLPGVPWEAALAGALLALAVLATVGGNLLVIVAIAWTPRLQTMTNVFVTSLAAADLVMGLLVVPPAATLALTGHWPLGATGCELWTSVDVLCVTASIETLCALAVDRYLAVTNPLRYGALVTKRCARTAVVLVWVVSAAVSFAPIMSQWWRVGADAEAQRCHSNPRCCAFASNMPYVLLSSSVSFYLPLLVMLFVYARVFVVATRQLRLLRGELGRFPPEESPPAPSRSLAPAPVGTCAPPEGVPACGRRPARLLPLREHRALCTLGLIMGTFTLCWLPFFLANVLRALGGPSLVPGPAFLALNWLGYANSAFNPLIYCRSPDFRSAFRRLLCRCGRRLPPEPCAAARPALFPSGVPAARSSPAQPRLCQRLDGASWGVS

For the first test, the target named is T1, Alpha-1D adrenergic receptor (Homo sapiens, UniProt P25100). Further: in other assays of this panel Not Active means under 50% inhibition at 10 µM.
T1 sequence (P25100 whole entry): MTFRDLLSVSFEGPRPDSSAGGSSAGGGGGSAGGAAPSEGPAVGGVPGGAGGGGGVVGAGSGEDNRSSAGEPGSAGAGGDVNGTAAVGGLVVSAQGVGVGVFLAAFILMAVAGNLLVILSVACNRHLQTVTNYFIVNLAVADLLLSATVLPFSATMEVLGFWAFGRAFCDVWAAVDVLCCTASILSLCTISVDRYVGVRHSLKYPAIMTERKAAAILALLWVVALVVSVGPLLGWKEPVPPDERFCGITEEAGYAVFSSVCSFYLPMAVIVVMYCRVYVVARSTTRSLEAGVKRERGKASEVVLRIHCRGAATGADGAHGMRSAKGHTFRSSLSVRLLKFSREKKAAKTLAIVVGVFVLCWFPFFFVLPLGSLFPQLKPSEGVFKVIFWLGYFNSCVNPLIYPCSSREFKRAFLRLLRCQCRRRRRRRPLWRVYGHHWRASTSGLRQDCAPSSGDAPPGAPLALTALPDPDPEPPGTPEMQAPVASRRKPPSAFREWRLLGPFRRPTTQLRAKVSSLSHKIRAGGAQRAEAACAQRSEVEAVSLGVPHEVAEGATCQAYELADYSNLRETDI
It counts as cell membranes, HEK293, Membrane. The following applies: hek293.
Regarding `Oc1ccc(OCc2ccccc2)cc1` [MONOBENZONE], the IC50 entry is reported as “Not Active”.
Still for that read-out and setting: for `CC(C)(Oc1ccc(C2CCCc3ccccc32)cc1)C(=O)O` (stereo not drawn) [NAFENOPIN] the value was “Not Active”; for `COc1ccc2cc([C@H](C)C(=O)O)ccc2c1` [NAPROXEN], “Not Active”.
On the same count and under the same terms, for `CC(C)[C@H]1CC[C@H](C(=O)N[C@H](Cc2ccccc2)C(=O)O)CC1` [NATEGLINIDE] the value was “Not Active”.

Another test has as its target Beta-2 adrenergic receptor (Homo sapiens, UniProt P07550). The test is described as follows: DRUGMATRIX: Adrenergic beta2 radioligand binding (ligand: [3H] CGP-12177). The following applies: cho; Not Active = under 50% inhibition at 10 µM. It counts as cell membranes, Membrane.
Turning to `Oc1ccc(OCc2ccccc2)cc1` [MONOBENZONE], the IC50 result is given as “Not Active”.
The same measure, in the same setting: for `CC(C)(Oc1ccc(C2CCCc3ccccc32)cc1)C(=O)O` (stereo not drawn) [NAFENOPIN] the value was “Not Active”; for `COc1ccc2cc([C@H](C)C(=O)O)ccc2c1` [NAPROXEN], “Not Active”.
`CC(C)[C@H]1CC[C@H](C(=O)N[C@H](Cc2ccccc2)C(=O)O)CC1` [NATEGLINIDE]: the IC50 entry is given as “Not Active”.

Another test addresses Beta-3 adrenergic receptor (Homo sapiens, UniProt P13945). The test is described as follows: DRUGMATRIX: Adrenergic beta3 radioligand binding (ligand: [125I] Cyanopindolol). It counts as cell membranes, Membrane. The following applies: hek293; Not Active = under 50% inhibition at 10 µM.
For `Oc1ccc(OCc2ccccc2)cc1` [MONOBENZONE], the IC50 result was “Not Active”.
For the compound `CC(C)(Oc1ccc(C2CCCc3ccccc32)cc1)C(=O)O` (stereo not drawn) [NAFENOPIN], the IC50 result is recorded as “Not Active”.
As to `COc1ccc2cc([C@H](C)C(=O)O)ccc2c1` [NAPROXEN], the IC50 entry is on record as “Not Active”.
On the same count and under the same terms, for `CC(C)[C@H]1CC[C@H](C(=O)N[C@H](Cc2ccccc2)C(=O)O)CC1` [NATEGLINIDE] the value was “Not Active”.

For another test, the target named is 5-hydroxytryptamine receptor 6 (Homo sapiens, UniProt P50406). It counts as cell membranes, HeLa, Membrane. The note with it: hela. Further: in other assays of this panel Not Active means under 50% inhibition at 10 µM.
5-hydroxytryptamine receptor 6, sequence (P50406 whole entry): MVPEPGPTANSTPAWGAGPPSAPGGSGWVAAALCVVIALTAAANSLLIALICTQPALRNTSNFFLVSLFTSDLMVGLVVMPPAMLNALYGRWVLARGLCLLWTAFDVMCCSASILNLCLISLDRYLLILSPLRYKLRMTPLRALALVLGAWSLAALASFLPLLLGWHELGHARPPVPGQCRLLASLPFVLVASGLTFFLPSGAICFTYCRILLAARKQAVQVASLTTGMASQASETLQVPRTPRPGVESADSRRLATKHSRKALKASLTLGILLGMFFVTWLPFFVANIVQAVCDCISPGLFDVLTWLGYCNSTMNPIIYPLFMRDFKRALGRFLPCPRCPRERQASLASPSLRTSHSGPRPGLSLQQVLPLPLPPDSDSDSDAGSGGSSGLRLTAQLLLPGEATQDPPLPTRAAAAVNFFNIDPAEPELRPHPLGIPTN
Consider `Oc1ccc(OCc2ccccc2)cc1` [MONOBENZONE], for which the IC50 result is “Not Active”.
`CC(C)(Oc1ccc(C2CCCc3ccccc32)cc1)C(=O)O` (stereo not drawn) [NAFENOPIN]: the IC50 entry was “Not Active”.
The same measure, in the same setting: for `COc1ccc2cc([C@H](C)C(=O)O)ccc2c1` [NAPROXEN] the value was “Not Active”; for `CC(C)[C@H]1CC[C@H](C(=O)N[C@H](Cc2ccccc2)C(=O)O)CC1` [NATEGLINIDE], “Not Active”.

The target of the next test is C-C chemokine receptor type 5 (Homo sapiens, UniProt P51681). It counts as cell membranes, HEK293, Membrane. The following applies: hek293. Further: in other assays of this panel Not Active means under 50% inhibition at 10 µM.
C-C chemokine receptor type 5, sequence (P51681 whole entry): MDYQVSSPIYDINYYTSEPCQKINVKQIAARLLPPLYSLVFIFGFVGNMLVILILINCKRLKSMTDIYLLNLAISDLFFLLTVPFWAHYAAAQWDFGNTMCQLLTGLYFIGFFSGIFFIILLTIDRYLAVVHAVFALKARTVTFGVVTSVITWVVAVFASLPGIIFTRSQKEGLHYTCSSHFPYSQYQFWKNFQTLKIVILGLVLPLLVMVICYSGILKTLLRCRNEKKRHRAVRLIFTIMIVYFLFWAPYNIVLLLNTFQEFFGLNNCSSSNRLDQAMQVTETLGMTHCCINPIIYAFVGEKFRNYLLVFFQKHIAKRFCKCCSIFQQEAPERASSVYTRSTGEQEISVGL
For `Oc1ccc(OCc2ccccc2)cc1` [MONOBENZONE], the IC50 entry is recorded as “Not Active”.
Still for that read-out and setting: for `CC(C)(Oc1ccc(C2CCCc3ccccc32)cc1)C(=O)O` (stereo not drawn) [NAFENOPIN] the value was “Not Active”; for `COc1ccc2cc([C@H](C)C(=O)O)ccc2c1` [NAPROXEN], “Not Active”.
Still for that read-out and setting: for `CC(C)[C@H]1CC[C@H](C(=O)N[C@H](Cc2ccccc2)C(=O)O)CC1` [NATEGLINIDE] the value was “Not Active”.

The next test addresses T2, Muscarinic acetylcholine receptor M5 (Homo sapiens, UniProt P08912).
T2 sequence (P08912 whole entry): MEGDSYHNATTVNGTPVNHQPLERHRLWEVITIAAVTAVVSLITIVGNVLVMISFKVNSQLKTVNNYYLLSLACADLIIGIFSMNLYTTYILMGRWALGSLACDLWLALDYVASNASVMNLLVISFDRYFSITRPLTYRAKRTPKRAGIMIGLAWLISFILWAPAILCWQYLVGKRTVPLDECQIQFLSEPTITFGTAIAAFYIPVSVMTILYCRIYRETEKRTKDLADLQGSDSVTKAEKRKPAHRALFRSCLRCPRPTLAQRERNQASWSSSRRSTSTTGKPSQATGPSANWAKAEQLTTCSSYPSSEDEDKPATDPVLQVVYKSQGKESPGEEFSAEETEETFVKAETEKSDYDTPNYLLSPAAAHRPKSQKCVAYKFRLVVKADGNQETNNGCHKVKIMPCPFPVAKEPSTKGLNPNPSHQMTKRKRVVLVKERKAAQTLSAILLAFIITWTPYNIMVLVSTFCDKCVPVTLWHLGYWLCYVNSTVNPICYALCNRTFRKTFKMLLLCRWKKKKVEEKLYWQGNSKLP
Type of test: cell membranes, CHO-K1, Membrane. The note with it: cho-k1.
For `Oc1ccc(OCc2ccccc2)cc1` [MONOBENZONE], the IC50 entry was “Not Active”.
On the same count and under the same terms, the value for `CC(C)(Oc1ccc(C2CCCc3ccccc32)cc1)C(=O)O` (stereo not drawn) [NAFENOPIN] was “Not Active”; that for `COc1ccc2cc([C@H](C)C(=O)O)ccc2c1` [NAPROXEN] was “Not Active”; that for `CC(C)[C@H]1CC[C@H](C(=O)N[C@H](Cc2ccccc2)C(=O)O)CC1` [NATEGLINIDE] was “Not Active”.

For the next test, the target named is T3, Nitric oxide synthase, inducible (Mus musculus, UniProt P29477).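 Further: inhibition of iNOS enzyme activity measured with L-arginine as substrate; in other assays of this panel Not Active means under 50% inhibition at 10 µM.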
T3 sequence (P29477 whole entry): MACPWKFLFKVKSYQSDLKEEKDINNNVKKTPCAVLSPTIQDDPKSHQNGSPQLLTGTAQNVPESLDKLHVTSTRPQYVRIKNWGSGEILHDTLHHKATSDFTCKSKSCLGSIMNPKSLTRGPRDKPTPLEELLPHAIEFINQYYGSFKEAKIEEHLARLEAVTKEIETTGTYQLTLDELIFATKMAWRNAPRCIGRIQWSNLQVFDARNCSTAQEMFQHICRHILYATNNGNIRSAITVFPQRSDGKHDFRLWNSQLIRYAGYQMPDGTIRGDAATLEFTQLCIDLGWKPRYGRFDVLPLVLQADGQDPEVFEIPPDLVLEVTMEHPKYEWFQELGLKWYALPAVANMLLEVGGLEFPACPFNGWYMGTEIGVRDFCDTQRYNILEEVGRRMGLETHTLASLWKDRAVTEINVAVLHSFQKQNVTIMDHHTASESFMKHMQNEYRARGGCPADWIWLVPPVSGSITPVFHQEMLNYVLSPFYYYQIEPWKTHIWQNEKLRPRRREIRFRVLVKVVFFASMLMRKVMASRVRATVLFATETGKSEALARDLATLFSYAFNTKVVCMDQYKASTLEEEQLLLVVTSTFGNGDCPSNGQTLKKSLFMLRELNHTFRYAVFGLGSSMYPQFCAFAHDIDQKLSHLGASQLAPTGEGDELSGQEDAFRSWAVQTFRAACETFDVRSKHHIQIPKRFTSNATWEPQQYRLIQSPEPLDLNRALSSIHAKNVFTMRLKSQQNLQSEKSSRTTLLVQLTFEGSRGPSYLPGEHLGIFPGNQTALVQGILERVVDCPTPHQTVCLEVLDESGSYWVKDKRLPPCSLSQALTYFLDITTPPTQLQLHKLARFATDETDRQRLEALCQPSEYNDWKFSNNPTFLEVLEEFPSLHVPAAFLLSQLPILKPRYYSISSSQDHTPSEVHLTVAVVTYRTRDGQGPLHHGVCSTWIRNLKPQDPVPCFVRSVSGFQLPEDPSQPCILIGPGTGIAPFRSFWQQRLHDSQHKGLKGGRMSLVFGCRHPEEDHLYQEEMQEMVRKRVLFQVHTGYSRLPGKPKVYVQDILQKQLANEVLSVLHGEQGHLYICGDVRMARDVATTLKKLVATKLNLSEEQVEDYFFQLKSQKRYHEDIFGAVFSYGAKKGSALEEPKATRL
Details: species or system Escherichia coli.
Details: not given
Take `Oc1ccc(OCc2ccccc2)cc1` [MONOBENZONE]: the IC50 entry is on record as “Not Active”.
The same measure, in the same setting: for `CC(C)(Oc1ccc(C2CCCc3ccccc32)cc1)C(=O)O` (stereo not drawn) [NAFENOPIN] the value was “Not Active”; for `COc1ccc2cc([C@H](C)C(=O)O)ccc2c1` [NAPROXEN], “Not Active”.
On the same count and under the same terms, for `CC(C)[C@H]1CC[C@H](C(=O)N[C@H](Cc2ccccc2)C(=O)O)CC1` [NATEGLINIDE] the value was “Not Active”.
